Measurements from patent US20140147848A1 (UNIVERSITY OF TSUKUBA, priority 2012, published 2014).
Like-named read-outs stand apart in the source and are kept apart here.

Legend:
[1] = test system: Caco-2 cells
Protocol: Caspase assay was performed using Immunochemistry Technologies, LLC's Apoptosis detection kit, according to the manufacturer's protocol. […] After treatment, approximately 290-300 μl of each cell suspension was transferred to sterile tubes (e.g., cell density should be around 1×10^7 cells/ml). 10 μl of 30×FLICA solution was added directly to the 290-300 μl cell suspensions, and then incubate cells for 1 hour at 37° C. under 5% CO2, protecting the tubes from light. 2 ml of 1× wash buffer was added to each tube. The tubes were then mix and centrifuge cells at <400×g for 5 minutes at room temperature (RT). The supernatant was carefully remove and discard. The cell pellet was resuspended in 1 ml 1× wash buffer, and the cells were centrifuged again at <400×g for 5 minutes at RT. The supernatant was carefully removed and discarded. The cells were resuspended in 400 μl PBS, about 100 μl of the cell suspensions was placed into each of 2 wells of a black microplate. Finally the fluorescence intensity of sulforhodamine (excitation 550 nm, emission 595 nm) was measured and used a fluorescence plate reader.

[2] = test system: Caco-2 cells; remark: listed apart in the source
Protocol: Specifically, Caco-2 cells were treated with concentrations of 0, 1 ppm, 5 ppm, 50 ppm, 60 ppm, and 70 ppm and analyzed by an MTT assay at 24 h, 48 h, and 72 h post-treatment.
The human colon adenocarcinoma cell line Caco-2 was kindly provided by Dr. Makoto Shimizu of the University of Tokyo, Japan. Caco-2 cells were cultured in Dulbecco's modified Eagle's medium (DMEM; Sigma) supplemented with 10% fetal calf serum (FCS), 1% nonessential amino acids (NEAA) and 1% Penicillin/Streptomycin (5 mg/ml each), and incubated in a 95% air and 5% CO2 atmosphere at 37° C. The cells were sub-cultured at a split ratio of 1:3 every 2 days.
Cell viability was assessed using a conventional MTT reduction assay. […] At the respective time points, 10 μl of MTT stock solution (5 mg/ml) was added to the culture medium and incubated for 6 h at 37° C. The formazan was extracted with 100 μl 10% SDS (W/V), and the absorbance was measured with a microliter plate reader at 570 nm wavelength.

[3] = test system: Caco-2 monolayer
Protocol: TEER measurements were obtained by growing the cells at a density of 2·10^5 cells/cm^2 in 6.5-mm diameter collagen coated Transwell (0.4 μm PTFE membrane) on 24-well plates. The medium was changed every 2 days, and the cells were cultured for 12 days to establish monolayer integrity. TEER measurements were performed according to the method of Hashimoto et al. (1997). After a 12-day culture period, the cell monolayer was rinsed with PBS.

[4] = test system: Caco-2 cells; settings: LAS 60 ppm
Protocol: (§1) Note that in all figures asterisks represent the significance of the difference compared to the control, e.g., * for p value<0.05 and ** for p value<0.01.
The determination of intracellular ROS was performed using the OxiSelect™ Intracellular ROS Assay Kit, from CELL BIOLABS, INC., according to the manufacturer's protocol. Briefly, Caco-2 cells were cultured in a 96-well plate for 24 h, and then pre-incubated for 60 min with DCFH-DA. […] After a different incubation times of, for example, 1 h, 3 h, 6 h, and 12 h, the fluorescence was read using a plate reader at 480 nm/530 nm excitation/emission wavelengths. The ROS content was determined by comparison with the predetermined DCF standard curve.

[5] = test system: Caco-2 cells; remark: listed apart in the source
Protocol: Cells were then harvested by centrifugation, where the supernatant was discarded and the pellet was resuspended in 1 ml of PBS. Genomic DNA was then purified using commercial DNA purification kit from QIAGEN. 1 μg of DNA sample was added to 2 μl of loading buffer (Wako) and then loaded onto a 2% agarose gel. The electrophoresis was carried out at a constant voltage of 100 V for 20 min and the DNA was finally observed under ultraviolet illumination after staining with ethidium bromide.

[6] = test system: Thioredoxin (THIO); settings: LAS 60 ppm
Excerpt: as §1

[7] = test system: Caco-2 cells; remark: listed apart in the source
[8] = test system: Heat shock cognate 71 kDa protein (HSP7C); settings: LAS 60 ppm, 12 hours after exposure
Protocol: (§2) Caco-2 cells treatment and RNA extraction: Caco-2 cells were seeded at 2×10^5 cells/ml density in Petri dishes. […] Total RNA was then purified using the ISOGEN kit (Nippon GeneCo Ltd., Japan) following the manufacturer's instructions.
(§3) cDNA synthesis: Total RNA was quantified using the Thermo scientific Nanodrop 2000 (USA), and reverse transcription reactions were performed using the Superscript III reverse transcriptase kit (Invitrogen, Carlsbad, Calif.) using 1 μg of total RNA. Briefly, RNA was denatured by incubation at 65° C. for 5 min, with 1 μL oligo (dT) primers, and chilled at 4° C. SuperScript III reverse transcriptase was then added and the reaction mix was incubated at 42° C. for 60 min, and then for 10 min at 70° C.
Real-time PCR: The expression of TPM3, THIO, CALR and HSP7C, respectively, in treated Caco-2 cells was determined by real-time PCR using glyceraldehyde 3-phosphate dehydrogenase (GAPDH) as an internal positive control. […] TaqMan real-time PCR amplification reactions were performed in a 20 μl reaction mixtures containing: 10 μl of TaqMan Universal PCR Master Mix UNG (2×), 9 μl of template cDNA (100 ng μl^−1) and 1 μl of the corresponding primer/probe mix, using an AB 7500 fast real-time system (Applied Biosystems). […]

[9] = test system: Calreticulin (CALR); assay: Real-time PCR, CALR expression in Caco-2 cells; settings: LAS 60 ppm
Protocol: as §2, §3
Real-time PCR: The expression of TPM3, THIO, CALR and HSP7C, respectively, in treated Caco-2 cells was determined by real-time PCR using glyceraldehyde 3-phosphate dehydrogenase (GAPDH) as an internal positive control. Oligos for TPM3 (Hs01900726_g1), THIO (Hs01555212_g1), CALR (Hs00189032_m1), HSP7C (Hs03045200_g1) and GAPDH (Hs02758991_g1) were inventoried gene expression assays (see Table 5). TaqMan real-time PCR amplification reactions were performed in a 20 μl reaction mixtures containing: 10 μl of TaqMan Universal PCR Master Mix UNG (2×), 9 μl of template cDNA (100 ng μl^−1) and 1 μl of the corresponding primer/probe mix, using an AB 7500 fast real-time system (Applied Biosystems). For the amplification, the following cycling conditions were applied: 2 min at 50° C., 10 min at 95° C., and 40 cycles of 15 s at 95° C./1 min at 60° C.

[10] = test system: Caco-2 cells; settings: 5 ppm and 60 ppm LAS, 24 hours, vs control
Protocol: Total protein was extracted from all three populations 24 hours after treatment, as described in detail below. […] The labeled spots (i.e., the differentially expressed proteins) were chosen based on the results of software analysis designed to assess the respective fold changes of protein levels in the each of the respective spots.
Caco-2 cells were seeded at 2×10^5 cells/ml density in Petri dishes. […] The cells were rinsed three times with ice-cold PBS, scraped gently, and collected in PBS. […] After desalting the protein was extracted using Amicon Ultra centrifugal filters (Ultracel-10K membrane) from Millipore, and the final protein amount was determined using the 2-D Quant kit (GE Healthcare).
The first dimension electrophoresis was carried out on an Ettan IPGphor II (GE Healthcare) apparatus. […] The destained gels were then scanned at 300 dpi resolution, and the images were analyzed with Image Master™ 2D software (ver. 4.9: GE Healthcare). For statistical quantification, three experiments were performed for each experiment. […] Spots were expressed as percentages (% vol) of relative volumes by integrating the value of each pixel in the spot area as described previously in our study (see, e.g., Han et al. 2010). […]

[11] = test system: Tropomyosin alpha-3 chain (TPM3); assay: Real-time PCR, TPM3 expression in Caco-2 cells; settings: LAS 60 ppm
Protocol: as §2, §3
Real-time PCR: The expression of TPM3, THIO, CALR and HSP7C, respectively, in treated Caco-2 cells was determined by real-time PCR using glyceraldehyde 3-phosphate dehydrogenase (GAPDH) as an internal positive control. […] TaqMan real-time PCR amplification reactions were performed in a 20 μl reaction mixtures containing: 10 μl of TaqMan Universal PCR Master Mix UNG (2×), 9 μl of template cDNA (100 ng μl^−1) and 1 μl of the corresponding primer/probe mix, using an AB 7500 fast real-time system (Applied Biosystems). For the amplification, the following cycling conditions were applied: 2 min at 50° C., 10 min at 95° C., and 40 cycles of 15 s at 95° C./1 min at 60° C.

## sodium dodecylbenzenesulfonate [LAS]
[1]
  cell death pathway (caspase assay): non-apoptotic pathway
[2]; 0-70 ppm LAS, 24 h, 48 h, 72 h post-treatment
  cytotoxic effect on Caco-2 cells (MTT): strong cytotoxic effect
[2]; LAS 5 ppm
  cytotoxic effect on Caco-2 cells (MTT): no obvious cytotoxic effect
[3]; 5, 10, 30, and 60 ppm LAS over time
  relative electrical resistance (TEER): decreased with increasing concentration of LAS
[3]; higher concentrations of LAS
  time to decrease in barrier function efficiency: ≤ 30 min
[4]; 12 hours post-treatment
  ROS production: returned to baseline levels (or lower)
[4]; within the first 6 hours after treatment
  ROS production: significant ROS production
[5]
  DNA fragmentation: no DNA fragmentation was observed
[6]; 3 hours
  THIO overexpression relative to the control: 1.4 fold
[6]; 6 hours
  THIO overexpression relative to the control: 1.4 fold
[6]; 12 hours
  THIO overexpression relative to the control: about 1.3 fold
[6]; 24 hours
  THIO overexpression relative to the control: about 1.1 fold
[7]; 3 and 6 hours post-treatment
  intracellular calcium concentration: decrease of the intracellular calcium concentration
[7]; 12 hours, continuing until 24 hours post-treatment
  intracellular calcium concentration: excessive increase of the intracellular calcium concentration
[8]
  HSP7C expression relative to control: significantly overexpressed
[9]; 3 hours post-treatment
  CALR expression relative to control: about 1.6 fold
[9]; 12 hours post-treatment
  CALR expression relative to control: decreased to baseline levels
[9]; 24 hours after exposure
  CALR expression relative to control: once again overexpressed
[10]
  change in protein expression, spots 1, 2, 4, 5, 7, 8, 9, 10, and 12: up-regulation
  change in protein expression, spots 3, 6, 11, and 13: down-regulation
[11]; 3 hours
  TPM3 overexpression relative to the control: 1.2 fold
[11]; 6 hours post-exposure
  TPM3 overexpression relative to the control: slightly below that of the control
[11]; after 6 hours (time not given)
  TPM3 overexpression relative to the control: ~1.05 fold
